According to ChEMBL document CHEMBL3991601, “The target landscape of clinical kinase drugs” (Science, 2017):
Calls of active or inactive are those of the source.

Experiments:
[1] = target: T1, Serine/threonine-protein kinase A-Raf (Homo sapiens, UniProt P10398)
T1 sequence (P10398 whole entry): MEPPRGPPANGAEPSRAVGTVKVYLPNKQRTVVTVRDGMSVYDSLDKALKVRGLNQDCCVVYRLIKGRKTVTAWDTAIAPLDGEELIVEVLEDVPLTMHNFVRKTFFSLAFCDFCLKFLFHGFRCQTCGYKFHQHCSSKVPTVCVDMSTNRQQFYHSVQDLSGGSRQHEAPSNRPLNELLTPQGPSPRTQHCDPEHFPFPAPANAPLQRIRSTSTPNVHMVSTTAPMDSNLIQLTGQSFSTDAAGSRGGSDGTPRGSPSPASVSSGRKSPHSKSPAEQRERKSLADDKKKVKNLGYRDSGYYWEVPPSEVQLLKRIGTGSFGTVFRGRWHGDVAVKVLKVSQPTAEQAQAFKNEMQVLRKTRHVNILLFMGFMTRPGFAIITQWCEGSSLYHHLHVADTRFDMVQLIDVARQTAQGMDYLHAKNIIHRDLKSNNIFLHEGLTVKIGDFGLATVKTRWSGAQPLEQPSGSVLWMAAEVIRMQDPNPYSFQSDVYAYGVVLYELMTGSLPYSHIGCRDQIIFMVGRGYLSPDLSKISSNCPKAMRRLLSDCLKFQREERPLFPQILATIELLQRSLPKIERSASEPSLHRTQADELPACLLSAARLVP

[2] = target: Mitogen-activated protein kinase kinase kinase 1 (Homo sapiens, UniProt Q13233)
[3] = target: T2, Scaffold protein ILK (Homo sapiens, UniProt Q13418)
T2 sequence (Q13418 whole entry): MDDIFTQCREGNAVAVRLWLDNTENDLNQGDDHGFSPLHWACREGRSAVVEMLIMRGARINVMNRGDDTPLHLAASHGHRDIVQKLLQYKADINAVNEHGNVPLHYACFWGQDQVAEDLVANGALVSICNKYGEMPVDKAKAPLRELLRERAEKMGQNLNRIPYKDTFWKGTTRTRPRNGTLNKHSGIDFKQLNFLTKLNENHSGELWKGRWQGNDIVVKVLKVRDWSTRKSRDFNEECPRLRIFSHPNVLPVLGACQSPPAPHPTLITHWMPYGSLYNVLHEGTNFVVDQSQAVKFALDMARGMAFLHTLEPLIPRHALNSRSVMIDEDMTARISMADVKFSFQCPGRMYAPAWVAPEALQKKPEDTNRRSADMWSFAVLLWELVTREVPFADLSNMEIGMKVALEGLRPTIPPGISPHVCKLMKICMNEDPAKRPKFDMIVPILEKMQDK

[4] = target: Cyclin-dependent kinase 5 (Homo sapiens, UniProt Q00535)
[5] = target: T3, Adenine phosphoribosyltransferase (Homo sapiens, UniProt P07741)
T3 sequence (P07741 whole entry): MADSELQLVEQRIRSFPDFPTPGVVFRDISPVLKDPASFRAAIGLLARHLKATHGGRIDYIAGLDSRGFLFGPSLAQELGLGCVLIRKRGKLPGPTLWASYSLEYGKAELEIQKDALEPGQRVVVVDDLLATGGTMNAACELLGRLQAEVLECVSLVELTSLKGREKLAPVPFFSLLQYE

[6] = target: T4, Very long-chain specific acyl-CoA dehydrogenase, mitochondrial (Homo sapiens, UniProt P49748)
T4 sequence (P49748 whole entry): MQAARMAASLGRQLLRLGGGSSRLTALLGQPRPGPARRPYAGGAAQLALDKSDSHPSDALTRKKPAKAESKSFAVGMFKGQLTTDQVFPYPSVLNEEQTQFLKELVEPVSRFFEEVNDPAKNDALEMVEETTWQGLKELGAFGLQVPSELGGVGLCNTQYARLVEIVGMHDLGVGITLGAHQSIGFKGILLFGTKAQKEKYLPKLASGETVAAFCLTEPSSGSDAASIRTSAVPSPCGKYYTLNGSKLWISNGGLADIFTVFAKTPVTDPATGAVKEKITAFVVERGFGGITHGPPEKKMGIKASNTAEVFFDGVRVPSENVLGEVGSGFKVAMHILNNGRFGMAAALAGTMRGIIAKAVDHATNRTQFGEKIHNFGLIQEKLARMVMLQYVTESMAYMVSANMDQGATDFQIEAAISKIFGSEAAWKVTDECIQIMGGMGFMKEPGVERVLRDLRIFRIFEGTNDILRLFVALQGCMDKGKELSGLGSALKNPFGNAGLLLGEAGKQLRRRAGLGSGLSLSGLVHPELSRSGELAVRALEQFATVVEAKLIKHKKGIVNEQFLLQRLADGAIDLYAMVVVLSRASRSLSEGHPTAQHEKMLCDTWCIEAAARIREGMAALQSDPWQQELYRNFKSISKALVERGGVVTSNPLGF

[7] = target: Calcium/calmodulin-dependent protein kinase type II subunit gamma (Homo sapiens, UniProt Q13555)
[8] = target: Serine/threonine-protein kinase/endoribonuclease IRE2 (Homo sapiens, UniProt Q76MJ5)
[9] = target: T5, Serine/threonine-protein kinase Nek3 (Homo sapiens, UniProt P51956)
T5 sequence (P51956 whole entry): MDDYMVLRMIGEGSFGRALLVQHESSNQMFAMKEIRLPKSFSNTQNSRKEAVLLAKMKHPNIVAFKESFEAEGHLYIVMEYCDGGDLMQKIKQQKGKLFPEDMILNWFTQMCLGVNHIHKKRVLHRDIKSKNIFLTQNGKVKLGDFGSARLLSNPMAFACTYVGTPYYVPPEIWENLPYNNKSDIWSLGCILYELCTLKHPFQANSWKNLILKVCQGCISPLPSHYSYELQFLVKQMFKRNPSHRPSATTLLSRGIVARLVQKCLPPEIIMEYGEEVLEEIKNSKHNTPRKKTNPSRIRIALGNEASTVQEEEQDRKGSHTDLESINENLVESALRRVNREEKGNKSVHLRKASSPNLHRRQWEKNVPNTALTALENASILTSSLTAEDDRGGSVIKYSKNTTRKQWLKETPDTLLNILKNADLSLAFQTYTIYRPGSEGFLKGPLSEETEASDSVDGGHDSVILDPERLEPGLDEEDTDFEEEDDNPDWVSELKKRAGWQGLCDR
Also: in the data inactive means no Kd found up to 30 µM.

Chain of Mitogen-activated protein kinase kinase kinase 1 (Q13233 whole entry): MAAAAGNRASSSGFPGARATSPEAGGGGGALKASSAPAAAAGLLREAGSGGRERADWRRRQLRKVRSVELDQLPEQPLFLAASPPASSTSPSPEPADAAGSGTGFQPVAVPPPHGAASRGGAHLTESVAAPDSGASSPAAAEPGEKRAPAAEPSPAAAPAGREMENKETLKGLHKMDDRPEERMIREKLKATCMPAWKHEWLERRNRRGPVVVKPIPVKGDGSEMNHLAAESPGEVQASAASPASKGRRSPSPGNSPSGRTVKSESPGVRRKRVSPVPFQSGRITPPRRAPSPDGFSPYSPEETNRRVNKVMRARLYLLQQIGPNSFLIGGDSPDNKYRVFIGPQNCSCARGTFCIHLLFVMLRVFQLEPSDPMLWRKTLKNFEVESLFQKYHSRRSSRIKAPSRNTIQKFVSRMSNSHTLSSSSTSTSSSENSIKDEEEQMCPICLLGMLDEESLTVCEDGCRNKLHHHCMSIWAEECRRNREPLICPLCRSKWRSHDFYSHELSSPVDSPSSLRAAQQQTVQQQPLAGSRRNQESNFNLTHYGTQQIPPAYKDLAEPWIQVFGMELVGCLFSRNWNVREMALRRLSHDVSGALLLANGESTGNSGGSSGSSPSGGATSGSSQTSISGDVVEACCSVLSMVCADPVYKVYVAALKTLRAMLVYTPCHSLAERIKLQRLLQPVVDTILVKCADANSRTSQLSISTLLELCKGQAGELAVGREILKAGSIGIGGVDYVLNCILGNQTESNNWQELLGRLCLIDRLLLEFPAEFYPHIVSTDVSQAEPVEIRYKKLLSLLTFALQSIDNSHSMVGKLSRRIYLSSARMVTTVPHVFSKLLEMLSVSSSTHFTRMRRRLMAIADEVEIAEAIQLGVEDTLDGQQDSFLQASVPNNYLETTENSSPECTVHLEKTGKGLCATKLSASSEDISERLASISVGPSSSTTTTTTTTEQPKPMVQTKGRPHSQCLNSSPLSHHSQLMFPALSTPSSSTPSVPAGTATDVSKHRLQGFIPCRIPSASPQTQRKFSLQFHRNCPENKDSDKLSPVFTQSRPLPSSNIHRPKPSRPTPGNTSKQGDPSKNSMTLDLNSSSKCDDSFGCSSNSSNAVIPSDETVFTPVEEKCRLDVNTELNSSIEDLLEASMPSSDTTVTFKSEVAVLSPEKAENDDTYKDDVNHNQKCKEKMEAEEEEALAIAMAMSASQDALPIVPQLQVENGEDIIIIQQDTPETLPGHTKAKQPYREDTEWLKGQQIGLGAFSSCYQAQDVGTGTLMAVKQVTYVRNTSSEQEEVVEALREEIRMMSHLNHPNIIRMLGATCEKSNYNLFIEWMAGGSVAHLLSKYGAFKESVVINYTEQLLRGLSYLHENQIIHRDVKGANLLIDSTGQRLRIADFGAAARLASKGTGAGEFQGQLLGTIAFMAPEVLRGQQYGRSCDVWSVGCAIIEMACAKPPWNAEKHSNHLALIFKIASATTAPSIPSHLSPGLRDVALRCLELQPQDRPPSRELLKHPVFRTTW
Chain of Serine/threonine-protein kinase/endoribonuclease IRE2 (Q76MJ5 whole entry): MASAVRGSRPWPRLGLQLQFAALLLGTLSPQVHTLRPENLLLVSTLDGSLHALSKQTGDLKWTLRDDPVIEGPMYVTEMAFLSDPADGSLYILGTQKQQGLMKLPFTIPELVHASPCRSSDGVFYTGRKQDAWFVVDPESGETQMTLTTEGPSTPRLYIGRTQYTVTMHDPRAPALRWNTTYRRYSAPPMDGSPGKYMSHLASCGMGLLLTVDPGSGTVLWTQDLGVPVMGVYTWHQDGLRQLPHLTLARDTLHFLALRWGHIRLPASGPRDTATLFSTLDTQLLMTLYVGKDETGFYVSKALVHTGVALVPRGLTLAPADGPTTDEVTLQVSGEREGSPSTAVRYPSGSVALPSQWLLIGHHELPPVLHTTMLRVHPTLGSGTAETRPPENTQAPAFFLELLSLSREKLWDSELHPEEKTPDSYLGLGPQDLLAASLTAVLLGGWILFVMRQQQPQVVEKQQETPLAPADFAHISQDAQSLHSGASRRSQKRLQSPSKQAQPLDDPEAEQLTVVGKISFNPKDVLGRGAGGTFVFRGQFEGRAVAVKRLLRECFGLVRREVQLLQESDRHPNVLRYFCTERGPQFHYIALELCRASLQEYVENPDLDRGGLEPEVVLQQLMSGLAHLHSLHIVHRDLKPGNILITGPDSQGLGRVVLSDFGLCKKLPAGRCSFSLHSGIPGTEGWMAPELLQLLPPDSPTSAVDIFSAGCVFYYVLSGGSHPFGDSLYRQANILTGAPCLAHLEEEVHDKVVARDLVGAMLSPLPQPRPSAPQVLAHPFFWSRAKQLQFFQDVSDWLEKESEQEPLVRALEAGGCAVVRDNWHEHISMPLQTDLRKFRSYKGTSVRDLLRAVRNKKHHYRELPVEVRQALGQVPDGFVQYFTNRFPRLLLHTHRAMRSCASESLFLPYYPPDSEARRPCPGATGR
Chain of Calcium/calmodulin-dependent protein kinase type II subunit gamma (Q13555 whole entry): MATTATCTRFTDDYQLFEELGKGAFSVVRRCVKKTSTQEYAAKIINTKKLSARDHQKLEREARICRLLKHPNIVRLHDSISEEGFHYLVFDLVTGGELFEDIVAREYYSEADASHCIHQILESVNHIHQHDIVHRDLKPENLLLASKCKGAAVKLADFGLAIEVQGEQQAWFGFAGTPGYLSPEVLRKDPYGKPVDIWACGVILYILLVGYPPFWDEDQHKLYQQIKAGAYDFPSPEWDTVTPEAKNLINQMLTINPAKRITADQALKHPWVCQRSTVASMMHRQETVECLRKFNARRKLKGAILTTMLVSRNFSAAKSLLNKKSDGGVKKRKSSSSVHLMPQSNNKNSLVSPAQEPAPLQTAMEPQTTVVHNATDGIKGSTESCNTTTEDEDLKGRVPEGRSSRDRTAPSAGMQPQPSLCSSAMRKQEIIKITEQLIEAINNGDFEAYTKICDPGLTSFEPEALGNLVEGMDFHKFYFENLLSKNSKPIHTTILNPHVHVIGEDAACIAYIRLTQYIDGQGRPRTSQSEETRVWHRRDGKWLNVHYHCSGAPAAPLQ
Chain of Cyclin-dependent kinase 5 (Q00535 whole entry): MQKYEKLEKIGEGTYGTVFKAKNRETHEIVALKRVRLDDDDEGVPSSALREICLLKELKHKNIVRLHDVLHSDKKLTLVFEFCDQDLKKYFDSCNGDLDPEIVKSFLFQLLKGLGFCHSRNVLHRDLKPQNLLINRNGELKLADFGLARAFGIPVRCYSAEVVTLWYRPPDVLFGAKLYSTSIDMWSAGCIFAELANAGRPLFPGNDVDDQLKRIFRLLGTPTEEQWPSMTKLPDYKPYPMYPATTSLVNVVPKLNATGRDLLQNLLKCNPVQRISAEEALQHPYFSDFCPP

Row | SMILES | Kd [1] | Kd [2] | Kd [3] | Kd [4] | Kd [5] | Kd [6] | Kd [7] | Kd [8] | Kd [9]
1 | C[C@@H](N)c1ccc(C(=O)Nc2ccnc3[nH]ccc23)cc1 [Y-39983] | > 30 µM (inactive) | > 30 µM (inactive) | > 30 µM (inactive) | > 30 µM (inactive) | > 30 µM (inactive) | > 30 µM (inactive) | > 30 µM (inactive) | > 30 µM (inactive) | > 30 µM (inactive)
2 | CN1C/C=C/CCOc2cccc(c2)-c2ccnc(n2)Nc2cccc(c2)C1 [ZOTIRACICLIB] | > 30 µM (inactive) | > 30 µM (inactive) | > 30 µM (inactive) | 0.93 µM (active) | > 30 µM (inactive) | > 30 µM (inactive) | > 30 µM (inactive) | > 30 µM (inactive) | > 30 µM (inactive)
